In one test the test system is P388. Description: Cytotoxicity against mouse P388 cells. Type of test: functional. To be noted: read-out: ED50 (the source's name).
The subject of another test is Staphylococcus aureus. The experiment in a line: Antimicrobial activity against Staphylococcus aureus ATCC 6538. The class given is functional, organism-based.
The next test concerns Bacillus subtilis. The experiment in a line: Antimicrobial activity against Bacillus subtilis ATCC 6633. Type of test: functional, organism-based.

In brackets after ≈: the same amount, converted by molar mass.

Take `CCCCC[C@H]1CCCCCCCCCC(=O)O[C@H]2[C@H](O)[C@@H](CO)O[C@@H](O[C@H]3[C@H](O1)O[C@H](C)[C@H](O)[C@@H]3O)[C@@H]2O[C@@H]1O[C@@H](C)[C@H](OC(=O)[C@@H](C)CC)[C@@H](O[C@@H]2O[C@@H](C)[C@H](O)[C@@H](O)[C@H]2O)[C@H]1OC(=O)[C@@H](C)CC` [TRICOLORIN A]: the EC50 with P388 stood at 2.2 µg/mL (≈ 2.15 µM). For NYSTATIN, the minimum inhibitory concentration (MIC) came out at 8 µg/mL in the test on Staphylococcus aureus and 16 µg/mL with Bacillus subtilis.

Values taken from ChEMBL document CHEMBL1150092, “Isolation and characterization of cytotoxic and antibacterial tetrasaccharide glycosides from Ipomoea stans” (1995).
